| Structure (SMILES) | melting point [°C] |
| --- | --- |
| COc1cc(C)c(C(=O)c2c(C(F)(F)F)cc(Cl)nc2Cl)c(OC)c1OC [compound No. 3, 3-(2,3,4-trimethoxy-6-methylbenzoyl)-2,6-dichloro-4-trifluoromethylpyridine] | 81 to 83 |
| COc1cc(C)c(C(=O)c2cnccc2C(F)(F)F)c(OC)c1OC [compound No. 7, 3-(2,3,4-trimethoxy-6-methylbenzoyl)-4-trifluoromethylpyridine] | 59 to 62 |
| COc1cc(C)c(C(=O)c2c(C(F)(F)F)ccnc2Cl)c(OC)c1OC [compound No. 11, 3-(2,3,4-trimethoxy-6-methylbenzoyl)-2-chloro-4-trifluoromethylpyridine] | 110 to 112 |
| COc1cc(C)c(C(=O)c2c(C(F)(F)F)ccnc2Cl)cc1OCc1ccccc1 [compound No. 27, 3-(5-benzyloxy-4-methoxy-2-methylbenzoyl)-2-chloro-4-trifluoromethylpyridine] | 116 to 117 |
| COc1cc(C)c(C(=O)c2c(C(F)(F)F)ccnc2OC)cc1OC [compound No. 32, 3-(4,5-dimethoxy-2-methylbenzoyl)-2-methoxy-4-trifluoromethylpyridine] | 125 to 127 |
| COc1cc(C)c(C(=O)c2c(Cl)nc(Cl)c(C(C)=O)c2C(F)(F)F)c(OC)c1OC [compound No. 62, 5-(2,3,4-trimethoxy-6-methylbenzoyl)-3-acetyl-2,6-dichloro-4-trifluoromethylpyridine] | 109 to 112 |
| COc1cc(C)c(C(=O)c2c(Cl)cnc(Cl)c2C(F)(F)F)c(OC)c1OC [compound No. 90, 4-(2,3,4-trimethoxy-6-methylbenzoyl)-2,5-dichloro-3-trifluoromethylpyridine] | 106 to 109 |

Next, values leading:

| melting point [°C] | Structure (SMILES) |
| --- | --- |
| 75 to 77 | COc1cc(C)c(C(=O)c2c(Cl)cncc2C(F)(F)F)c(OC)c1OC [compound No. 102, 4-(2,3,4-trimethoxy-6-methylbenzoyl)-3-chloro-5-trifluoromethylpyridine] |
| 103 to 106 | COc1cc(C)c(C(=O)c2c(OC)cncc2C(F)(F)F)c(OC)c1OC [compound No. 122, 4-(2,3,4-trimethoxy-6-methylbenzoyl)-3-methoxy-5-trifluoromethylpyridine] |
| 117 to 119 | COc1cc(C)c(C(=O)c2c(OC)cnc(Cl)c2C(F)(F)F)c(OC)c1OC [compound No. 123, 4-(2,3,4-trimethoxy-6-methylbenzoyl)-2-chloro-3-trifluoromethyl-5-methoxypyridine] |
| 145 to 147 | COc1cc(C)c(C(=O)c2c(OC)cnc(Br)c2C(F)(F)F)c(OC)c1OC [compound No. 124, 4-(2,3,4-trimethoxy-6-methylbenzoyl)-2-bromo-3-trifluoromethyl-5-methoxypyridine] |
| 60 to 61 | COc1cc(C)c(C(=O)c2c(Cl)cnc(Cl)c2Cl)c(OC)c1OC [compound No. 186, 4-(2,3,4-trimethoxy-6-methylbenzoyl)-2,3,5-trichloropyridine] |
| 109 to 111 | COc1cc(C)c(C(=O)c2c(Cl)cncc2Cl)c(OC)c1OC [compound No. 191, 4-(2,3,4-trimethoxy-6-methylbenzoyl)-3,5-dichloropyridine] |
| 98 to 99 | COc1cc(C)c(C(=O)c2c(OC)cnc(Cl)c2Cl)c(OC)c1OC [compound No. 193, 4-(2,3,4-trimethoxy-6-methylbenzoyl)-2,3-dichloro-5-methoxypyridine] |
| 88 to 93 | COc1cc(C)c(C(=O)c2c(C)cncc2Br)c(OC)c1OC [compound No. 228, 4-(2,3,4-trimethoxy-6-methylbenzoyl)-3-bromo-5-methylpyridine] |
| 97 to 99 | COc1cc(C)c(C(=O)c2c(OC)cnc(Br)c2Cl)c(OC)c1OC [compound No. 245, 4-(2,3,4-trimethoxy-6-methylbenzoyl)-2bromo-3-chloro-5-methoxypyridine] |
